Assay results as given in patent US20250066379A1, “ANTIMALARIAL AGENTS” (Merck Sharp & Dohme LLC, priority 2021, published 2025).

Tested on: parasite
Test: Parasite LDH growth assay (Parasite Assay)
Type: cell-based, Plasmodium falciparum
Conditions: ring stage parasites, 72 hours growth at 37° C., LDH readout of parasite growth
Method: Assessing Antiparasite Potency in a Parasite LDH Growth Assay (Parasite Assay) The parasite stock was maintained at 4% haematocrit in RPMI-Hepes media 30 buffered with sodium bicarbonate and supplemented with 5% heat inactivated human serum and 0.5% albumax. Approximately 42 hours prior to the potency assay being set up, parasites were synchronized with 5% sorbitol to select for ring stage parasites. On the day of assay set up, a blood smear of the parasite culture was Giemsa stained and counted. The parasitemia was 35 adjusted to 0.7% rings and the haematocrit was diluted to 2% in RPMI-Hepes media buffered with sodium bicarbonate and supplemented with 5% heat inactivated human serum and 0.5% albumax. 30 ul of diluted parasites are then added into 10 μl of media+compound in pre-prepared Greiner TC assay plates. Parasite assay plates were placed in gassed humidified boxes in single layer and allowed to incubate at 37° C. for 72 hours. After 72 hours growth, assay plates are sealed with parafilm and frozen flat, in single file at −80° C. overnight. On the following day, assay plates were allowed to thaw at room temperature for 4 hours to which an LDH assay was performed to measure parasite growth.

## CCC12CCCCCc3ccc4c(c3)[C@H](CC(C)(C)O4)NC(=O)c3ccc4c(c3)[C@@H]([C@H](COC)CO4)N(C(=N)N1)C(=O)C2 (mixture of isomers) [Example 16B, rac-(1R,18S,27R)-5-ethyl-3-imino-27-(methoxymethyl)-16,16-dimethyl-15,25-dioxa-2,4,19-triazahexacyclo[19. 6.2.22,5.211,14.013, 18.024,28] tritriaconta-11,13,21,23,28,30-hexaene-20,33-dione]
Plasmodium falciparum, 72 h
  EC50: 3.4 nM

## CCC12CCCC3CC3c3ccc4c(c3)[C@H](CC(C)(C)O4)NC(=O)c3ccc4c(c3)[C@@H]([C@H](COC)CO4)N(C(=N)N1)C(=O)C2 (mixture of isomers) [Example 17, rac-(12R,13R,22S)-8-ethyl-10-imino-13-(methoxymethyl)-24,24-dimethyl-15,25-dioxa-9,11,21-triazaheptacyclo[20. 6.2.28,11.216,19.02, 4.012,17.026,30] tetratriaconta-1(29),16(32),17,19 (31),26(30),27-hexaene-20,33-dione]
Plasmodium falciparum, 72 h
  EC50: 18.9 nM

## CC[C@]12CCC/C=C/c3ccc4c(c3)[C@H](CCO4)NC(=O)c3ccc4c(c3)[C@@H](CCO4)N(C(=N)N1)C(=O)C2 (racemic) [Example 18, rac-(1R,5R,9E,18S)-5-ethyl-3-imino-15,25-dioxa-2,4,19-triazahexacyclo[19. 6.2.22,5.211,14.013, 18.024,28] tritriaconta-9,11,13,21,23,28,30-heptaene-20,33-dione]
Plasmodium falciparum, 72 h
  EC50: 6 nM

## CC[C@]12CCCCCc3ccc4c(c3)[C@H](CCO4)NC(=O)c3ccc4c(c3)[C@@H](CCO4)N(C(=N)N1)C(=O)C2 (racemic) [Example 19, rac-(1R,5R,18S)-5-ethyl-3-imino-15,25-dioxa-2,4,19-triazahexacyclo[19. 6.2.22,5.211,14.013, 18.024,28] tritriaconta-11,13,21,23,28,30-hexaene-20,33-dione]
Plasmodium falciparum, 72 h
  EC50: 4.8 nM

## CCC12CC/C=C/c3ccc4c(c3)[C@H](CC(C)(C)O4)NC(=O)c3ccc4c(c3)[C@@H](CCO4)N(C(=N)N1)C(=O)C2 (mixture of isomers) [Example 20, rac-(1R,8E,17S)-5-ethyl-3-imino-15,15-dimethyl-14,24-dioxa-2,4,18-triazahexacyclo[18. 6.2.22,5.210,13.012, 17.023,27] dotriaconta-8,10,12,20,22,27,29-heptaene-19,32-dione]
Plasmodium falciparum, 72 h
  EC50: 3.6 nM

## CC[C@]12CCCC3CC3c3ccc4c(c3)[C@H](CCO4)NC(=O)c3ccc4c(c3)[C@@H](CCO4)N(C(=N)N1)C(=O)C2 (mixture of isomers) [Example 21, rac-(8R,12R,22S)-8-ethyl-10-imino-15,25-dioxa-9,11,21-triazaheptacyclo[20. 6.2.28,11.216,19.02, 4.012,17.026,30] tetratriaconta-1(29),16(32),17,19 (31),26(30),27-hexaene-20,33-dione]
Plasmodium falciparum, 72 h
  EC50: 5.1 nM

## CC[C@]12CCCCCc3ccc4c(c3)OC(C)(C)C[C@@H]4NC(=O)c3ccc4c(c3)[C@@H](CCO4)N(C(=N)N1)C(=O)C2 (racemic) [Example 22, rac-(1R,5R,19S)-5-ethyl-3-imino-17,17-dimethyl-16,26-dioxa-2,4,20-triazahexacyclo[20. 6.2.22,5.111,15.014, 19.025,29] tritriaconta-11(31),12,14,22,24, 29-hexaene-21,33-dione]
Plasmodium falciparum, 72 h
  EC50: 57.4 nM

## CCC12CCCCC/C=C\c3ccc4c(c3)OC(C)(C)C[C@@H]4NC(=O)c3ccc4c(c3)[C@@H](CCO4)N(C(=N)N1)C(=O)C2 (racemic) [Example 23, rac-(1R,11Z,21S)-5-ethyl-3-imino-19,19-dimethyl-18,28-dioxa-2,4,22-triazahexacyclo[22. 6.2.22,5.113,17.016, 21.027,31] pentatriaconta-11,13(33),14,16,24, 26,31-heptaene-23,35-dione]
Plasmodium falciparum, 72 h
  EC50: 7.5 nM

## CCC12CCCCCCCc3ccc4c(c3)OC(C)(C)C[C@@H]4NC(=O)c3ccc4c(c3)[C@@H](CCO4)N(C(=N)N1)C(=O)C2 (racemic) [Example 24A, rac-(1R,21S)-5-ethyl-3-imino-19,19-dimethyl-18,28-dioxa-2,4,22-triazahexacyclo[22. 6.2.22,5.113,17.016, 21.027,31] pentatriaconta-13(33),14,16,24,26, 31-hexaene-23,35-dione]
  EC50: 5.4 nM

## CCC12CCCCCCCc3ccc4c(c3)OC(C)(C)C[C@@H]4NC(=O)c3ccc4c(c3)[C@@H](CCO4)N(C(=N)N1)C(=O)C2 (racemic) [Example 24B, rac-(1R,21S)-5-ethyl-3-imino-19,19-dimethyl-18,28-dioxa-2,4,22-triazahexacyclo[22. 6.2.22,5.113,17.016, 21.027,31] pentatriaconta-13(33),14,16,24,26, 31-hexaene-23,35-dione]
  EC50: 2 nM

## COC[C@@H]1COc2ccc3cc2[C@@H]1N1C(=N)NC(C)(CCCCCc2ccc4c(c2)[C@H](CC(C)(C)O4)NC3=O)CC1=O (mixture of isomers) [Example 25A, rac-(1R,18S,27R)-3-imino-27-(methoxymethyl)-5,16,16-trimethyl-15,25-dioxa-2,4,19-triazahexacyclo[19. 6.2.22,5.211,14.013, 18.024,28] tritriaconta-11,13,21,23,28,30-hexaene-20,33-dione]
  EC50: 23 nM

## COC[C@@H]1COc2ccc3cc2[C@@H]1N1C(=N)NC(C)(CCCCCc2ccc4c(c2)[C@H](CC(C)(C)O4)NC3=O)CC1=O (mixture of isomers) [Example 25B, rac-(1R,18S,27R)-3-imino-27-(methoxymethyl)-5,16,16-trimethyl-15,25-dioxa-2,4,19-triazahexacyclo[19. 6.2.22,5.211,14.013, 18.024,28] tritriaconta-11,13,21,23,28,30-hexaene-20,33-dione]
  EC50: 0.7 nM

## CCC12CCC/C=C/c3ccc4c(c3)[C@H](CC(C)(C)O4)NC(=O)c3ccc4c(c3)[C@@H]([C@H](COC)CO4)N(C(=N)N1)C(=O)C2 (mixture of isomers) [Example 26A, rac-(1R,9E,18S,27R)-5-ethyl-3-imino-27-(methoxymethyl)-16,16-dimethyl-15,25-dioxa-2,4,19-triazahexacyclo[19. 6.2.22,5.211,14.013, 18.024,28] tritriaconta-9,11,13,21,23,28,30-heptaene-20,33-dione]
  EC50: 190 nM

## CCC12CCC/C=C/c3ccc4c(c3)[C@H](CC(C)(C)O4)NC(=O)c3ccc4c(c3)[C@@H]([C@H](COC)CO4)N(C(=N)N1)C(=O)C2 (mixture of isomers) [Example 26B, rac-(1R,9E,18S,27R)-5-ethy1-3-imino-27-(methoxymethyl)-16,16-dimethyl-15,25-dioxa-2,4,19-triazahexacyclo[19. 6.2.22,5.211,14.013, 18.024,28] tritriaconta-9,11,13,21,23,28,30-heptaene-20,33-dione]
  EC50: 7.4 nM

## CCC12CCCCCc3ccc4c(c3)[C@@H](NC(=O)c3ccc5c(c3)[C@@H]([C@H](COC)CO5)N(C(=N)N1)C(=O)C2)[C@H](O)C4 (single isomer, unassigned) [Example 15A]
  EC50: 9.2 nM

## CCC12CCCCCc3ccc4c(c3)[C@@H](NC(=O)c3ccc5c(c3)[C@@H]([C@H](COC)CO5)N(C(=N)N1)C(=O)C2)[C@H](O)C4 (single isomer, unassigned) [Example 15B]
  EC50: 81 nM

## CC[C@]12CCCC(C)c3ccc4c(c3)[C@@H](NC(=O)c3ccc5c(c3)[C@@H](CCO5)N(C(=N)N1)C(=O)C2)[C@H](O)C4 (stereo partly drawn) [Example 1, (1R,5R,15R,16R)-5-ethyl-15-hydroxy-3-imino-9-methyl-23-oxa-2,4,17-triazahexacyclo[17.6.2.22,5.210,13.012,16.022,26]hentriaconta-10,12,19,21,26,28-hexaene-18,31-dione]
Plasmodium falciparum, 72 h
  EC50: 2.7 nM

## CC[C@]12CCCCCc3ccc4c(c3)[C@@H](NC(=O)c3ccc5c(c3)[C@@H](CCO5)N(C(=N)N1)C(=O)C2)[C@H](O)C4 [Example 2, (1R,5R,16R,17R)-5-ethyl-16-hydroxy-3-imino-24-oxa-2,4,18-triazahexacyclo[18.6.2.22,5.211,14.013,17.023,27]dotriaconta-11,13,20,22,27,29-hexaene-19,32-dione]
Plasmodium falciparum, 72 h
  EC50: 11 nM

## CC[C@]12CCCCc3ccc4c(c3)[C@H](CC(C)(C)O4)NC(=O)c3ccc4c(c3)[C@@H](CCO4)N(C(=N)N1)C(=O)C2 [Example 3A, (1R,5R,17S)-5-ethyl-3-imino-15,15-dimethyl-14,24-dioxa-2,4,18-triazahexacyclo[18.6.2.22,5.210,13.012,17.023,27]dotriaconta-10,12,20,22,27,29-hexaene-19,32-dione]
Plasmodium falciparum, 72 h
  EC50: 0.2 nM

## CC[C@@]12CCCCc3ccc4c(c3)[C@H](CC(C)(C)O4)NC(=O)c3ccc4c(c3)[C@@H](CCO4)N(C(=N)N1)C(=O)C2 [Example 3B, (1R,5S,17S)-5-ethyl-3-imino-15,15-dimethyl-14,24-dioxa-2,4,18-triazahexacyclo[18. 6.2.22,5.210,13.012, 17.023,27] dotriaconta-10,12,20,22,27,29-hexaene-19,32-dione]
Plasmodium falciparum, 72 h
  EC50: 270 nM

## CC[C@]12CCCCOc3ccc4c(c3)[C@H](CC(C)(C)O4)NC(=O)c3ccc4c(c3)[C@@H](CCO4)N(C(=N)N1)C(=O)C2 [Example 4, (1R,5R,18S)-5-ethyl-3-imino-16,16-dimethyl-10,15,25-trioxa-2,4,19-triazahexacyclo[19.6.2.22,5.211,14.013,18.024,28]tritriaconta-11,13,21,23,28,30-hexaene-20,33-dione]
Plasmodium falciparum, 72 h
  EC50: 2 nM

## CC[C@]12CCC/C=C/c3ccc4c(c3)[C@@H](NC(=O)c3ccc5c(c3)[C@@H](CCO5)N(C(=N)N1)C(=O)C2)[C@H](O)C4 [Example 5, (1R,5R,9E,16R, 17R)-5-ethyl-16-hydroxy-3-imino-24-oxa-2,4,18-triazahexacyclo[18. 6.2.22,5.211,14.013, 17.023,27] dotriaconta-9,11,13,20,22,27, 29-heptaene-19,32-dione]
Plasmodium falciparum, 72 h
  EC50: 0.9 nM
